Where two headings read alike, the source gives them in different places.
What was measured:
[1] = system: "D-I-A" mutant (pNL-Bal, gp41 G36D, V38A); settings: for IC50: "D-I-A" mutant, R5; for Rf (resistance factor: IC50 on mutant virus / IC50 on reference strain): "D-I-A" vs pNL-Bal; for Resistance factor (IC50 mut/IC50 wt) IC50 fold increase: Table II, "D-I-A" vs wild-type pNL-Bal
pNL-AD87 HIV-1 virus [2] = assay: microbe, parasite or virus in culture; settings: Human immunodeficiency virus 1
Method: (§3) Two compounds were evaluated for their activity as inhibitor of HIV replication on three different lab strains using the deCIPhR cellular format.
(§4) Compound stocks were prepared as 1.5 mM solution in 100% DMSO and vials were agitated for two hours at 50° C. Stock solutions were kept at −20° C., light protected as aliquots. Working dilutions (1/3 log) were prepared extemporaneously by serial dilutions in H2O/DMSO (95/5). Ten μL of working dilutions were then pipetted and directly tested for anti-HIV activity in the 200 μL final volume of the deCIPhR cellular assay format, yielding final concentrations of 7'500, 3'481, 1'616, 750, 348, 162, 75, 35, 16, 8 and 3 nM.
(§5) The DNA sequence coding for Vpu, Tat, Rev, Env, and Nef from the CCR5-tropic clone AD87 (HIV strain AD8, Genbank accession number #AF004394) was introduced by PCR-cloning into the reference proviral strain pNL4-3 (Genbank accession number #AF324493), where it replaced the corresponding region. Presence of insert was ascertained by restriction digest analysis and double sequencing on ABI 310 prism sequencer. After transfection, pNL-AD87 produces a full-length infectious virus often used as reference for a B-Subtype, CCR5-tropic strain (Theodore et al., 1996).
(§6) Principle of Dual-Enhancement of Cell-Infection to Phenotype Resistance (deCIPhR™): deCIPhR test is a proprietary assay system developed by InPheno AG (FIG. 7):
(§7) Fully infectious HIV-1 is produced from a proviral reference DNA reflecting a reference HIV-1 virus. Recombinants carrying an exchanged specific-sequence (e.g. mutants resistant to existing HIV-1 inhibitors or sequences issued from clinical situations) can easily be engineered by PCR-based amplification/ligation (see paragraph 3). The unique test format allows 3 to 5 rounds of viral replication and permits a dynamic parallel read-out of viral fitness and resistance to the respective drugs under investigation. Colorimetric readout (405 nm) is translated in percent viral inhibition through normalization with positive and negative control wells included in each 96 well-plate. […]

pNL4-3 HIV-1 virus [3] = assay: microbe, parasite or virus in culture; settings: Human immunodeficiency virus 1
Method: as §4
(§8) Fully infectious HIV-1 is produced from a proviral reference DNA reflecting a reference HIV-1 virus. […] The unique test format allows 3 to 5 rounds of viral replication and permits a dynamic parallel read-out of viral fitness and resistance to the respective drugs under investigation. Colorimetric readout (405 nm) is translated in percent viral inhibition through normalization with positive and negative control wells included in each 96 well-plate.
(§9) Each mutated proviral DNA is transfected into a human epitheloid cell line using lipofectant agent (lipofectamine 2000, Invitrogen) following the manufacturer's instructions. Cell to cell spread and replication of recombinant viruses is allowed for but also restricted to a period of four days in the absence or presence of specific drugs by co-culture with a second cell line expressing both chemokine receptors CXCR4 and CCR5. Finally, culture supernatants are transferred to a third reporter cell line also expressing both kinds of co-receptors. The infection is incubated for another 48 hours period, after which cells are fixed (formaldehyde/glutaraldehyde) prior to incubation with a chromogenic substrate for beta-galactosidase, typically ortho-nitrophenyl-galactopyranoside.
(§10) A range of twelve concentrations of each compound was tested in triplicates in the deCIPhR format on each mutated provirus.

pNL-Bal HIV-1 virus [4] = settings: for Rf (resistance factor): pNL-Bal reference strain, ratio to itself
Method: as §3, §4
(§11) The DNA sequence coding for Vpu, Tat, Rev, Env, and Nef from the CCR5-tropic clone BAL2 (HIVBAL2A, Genbank accession number #M68894) was introduced by PCR-cloning into the reference proviral strain pNL4-3 (Genbank accession number #AF324493), where it replaced the corresponding region. Presence of insert was ascertained by restriction digest analysis and double sequencing on ABI 310 prism sequencer. After transfection, pNL-BaL produces a full-length infectious virus often used as reference for a B-Subtype, CCR5-tropic strain (Donaldson et al., 1994).
as §6
(§12) Fully infectious HIV-1 is produced from a proviral reference DNA reflecting a reference HIV-1 virus. Recombinants carrying an exchanged specific-sequence (e.g. mutants resistant to existing HIV-1 inhibitors or sequences issued from clinical situations) can easily be engineered by PCR-based amplification/ligation (see paragraph 3). The unique test format allows 3 to 5 rounds of viral replication and permits a dynamic parallel read-out of viral fitness and resistance to the respective drugs under investigation. Colorimetric readout (405 nm) is translated in percent viral inhibition through normalization with positive and negative control wells included in each 96 well-plate.
as §9, §10
(§13) The two compounds under investigation were tested along with reference compounds T20 and EFV on three wild-type viruses (pNL4-3, green curves; pNL-Bal, blue curves and pNL-AD87, orange curves) using the deCIPhR cellular system (see paragraph 4.1).

[5] = system: "G-I-A" mutant (pNL-Bal, gp41 V38A); settings: for IC50: "G-I-A" mutant, R5; for Rf (resistance factor: IC50 on mutant virus / IC50 on reference strain): "G-I-A" vs pNL-Bal; for Resistance factor (IC50 mut/IC50 wt) IC50 fold increase: Table II, "G-I-A" vs wild-type pNL-Bal
pNL4-3 HIV-1 virus [6] = assay: microbe, parasite or virus in culture; type: cell-based; settings: virus to cell infection, pNL4-3, X4 tropism
Method: Fully infectious HIV-1 is produced from proviral reference DNA reflecting a reference wild-type HIV-1 virus (pNL4-3, Genbank #AF003888).
(§1) Format for virus to cell infection: Briefly, the assay was performed in 6 well tissue culture plates and included 50'000 HIV-producing cells (HeLa) in a final volume of 2 mL DMEM medium (Gibco, Parsley, UK). After 2 days of incubation, […] of viral supernatant was added to 5'000 pre-incubated HIV-reporter cells (HeLaCCR5) in a final volume of […] of RPMI medium (Gibco, Parsley, UK) including […] of substances to be tested.
(§2) In this experiment only pNL4-3 reference HIV strain was used.
Graphs in FIG. 10 show the inhibition curves as percent of virus inhibition as a function of increasing concentrations of each compound. The table in FIG. 10 reports the calculated parameters of HIV inhibition (IC50, IC90 and Hill's coefficient).

pNL-Bal HIV-1 virus [7] = assay: microbe, parasite or virus in culture; settings: Human immunodeficiency virus 1, BAL
Method: as §3, §4, §11, §6, §12, §9, §10, §13

binding of gp120 to α4β7 = assay: gp120 binding to α4β7 in cell extracts (previous studies); parameters: species or system human; settings: read-out: activity of inhibition of the binding of gp120 to α4β7
Text: FIG. 37: Activity of a panel of inhibitors in blocking the binding of gp120 to a4b7. (a) The left chart depicts data collected in example 3 using ELISA assay. (b) The right chart depicts data collected by screening cell extracts. Bold letters used for a compound denote active compounds. The remaining compounds are weak or non-inhibitors All assays were repeated six times (three times for each anti-gp120 mAb used in the case of the ELISA data) and an average was presented. All values were obtained within 5% deviation.
This method was advanced into an ELISA format and applied to screen the number of compounds provided within the research period.
Outcome: Repandusinic acid A inhibited the binding of gp120 to α4β7 with an activity of 1.2±0.1 μM using the described an ELISA assay.
The five-step assay developed was applied to screen the panel of compounds provided. […] The experiments were run in triplicate using two antibodies against gp120. The data was compiled and plotted (FIG. 37a) and compared against the results with less accuracy obtained in our prior studies (FIG. 37b). Only modest changes were observed between the in vitro studies conducted herein (FIG. 37a) and those conducted on cell lysates (FIG. 37b). Results obtained are described in detail in the figure legend to FIG. 37 herein above.

[8] = system: HIV-reporter cells (HeLaCCR5); assay: cytotoxicity microscopically observed in virus-to-cell infection format; type: cell-based; settings: highest concentration
Method: as §1, §2

HIV = assay: profiling of anti-HIV activity, summary over lab strains; type: cell-based, HIV-1; settings: summary of Example 2 results
deCIPhR cellular system = settings: at tested concentrations
Text: as §9, §13

pNL-AD87 HIV-1 virus [9] = settings: cell to cell infection, pNL-AD87, R5 tropism
Method: as §3, §4, §5, §6, §7

pNL4-3 HIV-1 virus [10] = settings: cell to cell infection, pNL4-3, X4 tropism
Method: as §4, §8, §9, §10

O=C1Nc2ccc(Cl)cc2[C@@](C#CC2CC2)(C(F)(F)F)O1 [EFV, Efavirenz]
IC50 [1]: 3 nM
Rf (resistance factor: IC50 on mutant virus / IC50 on reference strain) [1]: 0.6
Resistance factor (IC50 mut/IC50 wt) IC50 fold increase [1]: 0.5
IC50 (pNL-AD87 HIV-1 virus [2]): 1 nM
IC50 (pNL4-3 HIV-1 virus [3]): 9 nM
Rf (resistance factor) (pNL-Bal HIV-1 virus [4]): 1
IC50 [5]: 1.7 nM
Rf (resistance factor: IC50 on mutant virus / IC50 on reference strain) [5]: 0.3
Resistance factor (IC50 mut/IC50 wt) IC50 fold increase [5]: 0.3
IC50 (pNL4-3 HIV-1 virus [6]; Human immunodeficiency virus 1, read-out: IC50): 2 nM
IC50 (pNL-Bal HIV-1 virus [7]; read-out: IC50 (concentration inhibiting 50% of viral replication)): 0.005 µM

O=C(O)C=C(C(=O)OC1C2COC(=O)c3cc(O)c(O)c(O)c3-c3c(cc(O)c(O)c3O)C(=O)OC1C(O)C(OC(=O)c1cc(O)c(O)c(O)c1)O2)C1c2c(cc(O)c(O)c2O)C(=O)OC1C(=O)O (stereo not shown) [Repandusinic acid A]
IC50 (binding of gp120 to α4β7): 9.08 µM

O=C(CNC1CCCCC1)Nc1cccc(C(=O)Nc2cccc(C(F)(F)F)c2)c1 [T0520-5895]
IC50 [1]: > 30000 nM
Rf (resistance factor: IC50 on mutant virus / IC50 on reference strain) [1]: >40
Resistance factor (IC50 mut/IC50 wt) IC50 fold increase [1]: >40
IC50 (pNL-AD87 HIV-1 virus [2]): 250 nM
IC50 (pNL4-3 HIV-1 virus [3]): > 30000 nM
signs of cytotoxicity [8]: signs of cytotoxicity
Rf (resistance factor) (pNL-Bal HIV-1 virus [4]): 1
IC50 [5]: 7600 nM
Rf (resistance factor: IC50 on mutant virus / IC50 on reference strain) [5]: 0.5
Resistance factor (IC50 mut/IC50 wt) IC50 fold increase [5]: 0.5
IC50 (pNL4-3 HIV-1 virus [6]): inactive
anti-HIV activity (HIV): significant anti-HIV activity
IC50 (pNL-Bal HIV-1 virus [7]; read-out: IC50, extrapolated value): 15.1 µM
signs of cytotoxicity (deCIPhR cellular system): without signs of cytotoxicity

enfuvirtide
IC50 [1]: 2270 nM
Rf (resistance factor: IC50 on mutant virus / IC50 on reference strain) [1]: 227
Resistance factor (IC50 mut/IC50 wt) IC50 fold increase [1]: 227
IC50 (pNL-AD87 HIV-1 virus [9]): 63 nM
Rf (resistance factor) (pNL-Bal HIV-1 virus [4]): 1
IC50 (pNL-Bal HIV-1 virus [4]; read-out: IC50 (concentration inhibiting 50% of viral replication), cell to cell infection, pNL-Bal, R5 tropism): 10 nM
IC50 (pNL4-3 HIV-1 virus [10]): 76 nM
IC50 [5]: 127 nM
Rf (resistance factor: IC50 on mutant virus / IC50 on reference strain) [5]: 12.7
Resistance factor (IC50 mut/IC50 wt) IC50 fold increase [5]: 13
IC50 (pNL4-3 HIV-1 virus [6]; read-out: IC50): 48 nM

Reference: patent US9422527B2, “Drug target site within gp120 of HIV” (priority 2011, dated 2016)
